The values that follow come from PMC8389037, “Design, Synthesis and Antifungal Activity of Stapled Aurein1.2 Peptides” (Antibiotics, 2021).

Holding throughout (assay): microbe, parasite or virus in culture
The subject of one test is C. albicans 901. The settings on record: for Minimum inhibitory concentration (MIC): 901, 48 h. The method, then:
(§1) The in vitro antifungal activities of the target peptides were evaluated according to protocols from the CLSI. The broth microdilution method was used to determine the minimum inhibitory concentration (MIC) of the target peptides in 96-well plates. Fluconazole was used as a reference drug.
(§2) Clinical isolates of C. albicans SC5314, 901, 904, C. tropicalis ATCC20026 and clinical isolate 895, C. glabrata ATCC1182 and clinical isolate 896, C. krusei ATCC2340, and C. parapsilosis ATCC22010 are from the collection library in the Drug Discovery and Development Center, Naval Medical University, Shanghai, China. C. auris clinical isolates are provided by Linqi Wang (Institute of Microbiology, Chinese Academy of Sciences) and Changbin Chen (Institut Pasteur of Shanghai, Chinese Academy of Sciences). All strains were cultured in YPD (1% yeast extract, 2% peptone, and 2% glucose) liquid medium overnight at 30 °C with shaking at 220 rpm.
(§3) The MICs of chemicals against all strains were determined by the micro broth dilution method according to the Clinical and Laboratory Standards Institute (Wayne PA, Reference Method for Broth Dilution Antifungal Susceptibility Testing of yeasts, approved Standard M27-A3, 3 rd ed; Clinical and Laboratory Standards Institute (CLSI): USA, 2008). The initial concentration of fungal suspension in RPMI 1640 medium was 3–5 × 10^3 colonies forming unit (CFU)/mL, which was added to 96-well plates. Peptides were prepared in dimethyl sulfoxide (DMSO) with an initial stored concentration of 6.4 mg/mL. Serial dilutions were made based on the CLSI M27 guide to obtaining the final concentrations ranging from 0.125 to 64 μg/mL for fluconazole and 0.25 to 128 μg/mL for peptides […]. The plates were incubated at 30 °C for 48 h. Optical density was measured at 630 nm, and background optical densities were subtracted from that of each well. The definition of MIC is the lowest concentration at which 80% of tested strains cannot grow.

The next test deals with C. albicans 904. The settings on record: for Minimum inhibitory concentration (MIC): 904, 48 h. The method, then:
as §1, §2, §3

For the next test, the system named is C. albicans SC5314. The settings on record: SC5314, 48 h. The method, then: as §1, §2, §3
For another test, the system named is C. auris 918. The settings on record: for Minimum inhibitory concentration (MIC): 918, 48 h. The protocol: as §1, §2, §3
For another test, the system named is C. auris 919. The settings on record: for Minimum inhibitory concentration (MIC): 919, 48 h. The method, then:
as §1, §2, §3

Another test has as its system C. glabrata 896. The settings on record: for Minimum inhibitory concentration (MIC): 896, 48 h. The protocol:
as §1, §2, §3

The test system of the next test is C. glabrata ATCC 1182. The note with it: for Minimum inhibitory concentration (MIC): ATCC 1182, 48 h. The method, then:
as §1, §2, §3

A further test has as its system C. krusei ATCC 2340. The note with it: for Minimum inhibitory concentration (MIC): ATCC 2340, 48 h. The method, then: as §1, §2, §3
Test [1] deals with C. parapsilosis ATCC 22010. The settings on record: for Minimum inhibitory concentration (MIC): ATCC 22010, 48 h. The method, then:
as §1, §2, §3

A further test deals with C. tropicalis 895. The settings on record: for Minimum inhibitory concentration (MIC): 895, 48 h. The protocol: as §1, §2, §3
In the next test the test system is C. tropicalis ATCC 20026. The settings on record: for Minimum inhibitory concentration (MIC): ATCC 20026, 48 h. The method, then:
as §1, §2, §3

[2] abbreviates: Candidozyma auris, 48 h, read-out: Minimum inhibitory concentration (MIC).

SMILES strings stand for the structures. In brackets after ≈: the same amount, converted by molar mass. Where a SMILES comes first, the peptide text is derived from it. Bridges are numbered along the chain shown (N, C = ends). [ ]: non-standard residue; d: D form. S5 = C=CCCC[C@](C)(N)C(=O)O

With `CC[C@H](C)[C@H](NC(=O)[C@H](CCCCN)NC(=O)[C@H](CCCCN)NC(=O)[C@]1(C)CCCC=CCCC[C@](C)(NC(=O)CNC(C)=O)C(=O)N[C@@H](Cc2ccccc2)C(=O)N[C@@H](CC(=O)O)C(=O)N[C@@H]([C@@H](C)CC)C(=O)N1)C(=O)N[C@@H](C)C(=O)N[C@@H](CCC(=O)O)C(=O)N[C@@H](CO)C(=O)N[C@@H](Cc1ccccc1)C(N)=O` [Sau-2] (Ac-G[S5]FDI[S5]KKIAESF-NH2; staple 2-6), the “Minimum inhibitory concentration (MIC)” value in the test on C. albicans 901 is above 128 µg/mL; in the test on C. albicans 904 it was above 128 µg/mL; with C. albicans SC5314 it was above 64 µg/mL; with C. auris 918, above 128 µg/mL; in the test on C. auris 919 it was above 128 µg/mL; in the test with C. glabrata 896, 128 µg/mL (≈ 82.8 µM). For the same molecule, the “Minimum inhibitory concentration (MIC)” value with C. glabrata ATCC 1182 is above 128 µg/mL; with C. krusei ATCC 2340, above 128 µg/mL; in [1], above 128 µg/mL; in the test with C. tropicalis 895 it was 16 µg/mL (≈ 10.4 µM); in the test with C. tropicalis ATCC 20026, above 128 µg/mL.

In the case of `CC[C@H](C)[C@@H]1NC(=O)[C@H](CCCCN)NC(=O)[C@@](C)(NC(=O)[C@@H](NC(=O)[C@@H](NC(=O)[C@H](CC(=O)O)NC(=O)[C@H](Cc2ccccc2)NC(=O)[C@H](CC(C)C)NC(=O)CNC(C)=O)[C@@H](C)CC)[C@@H](C)CC)CCCC=CCCC[C@@](C)(C(=O)N[C@@H](CO)C(=O)N[C@@H](Cc2ccccc2)C(N)=O)NC(=O)[C@H](C)NC1=O` [Sau-7] (Ac-GLFDII[S5]KIA[S5]SF-NH2; staple 7-11), the “Minimum inhibitory concentration (MIC)” value with C. albicans 901 was above 128 µg/mL; in the test with C. albicans 904, above 128 µg/mL; with C. albicans SC5314 it was above 64 µg/mL; in the test with C. auris 918, above 128 µg/mL; with C. auris 919 it was above 128 µg/mL; with C. glabrata 896, above 128 µg/mL. The “Minimum inhibitory concentration (MIC)” value (in the test with C. glabrata ATCC 1182; in the test with C. krusei ATCC 2340; in test [1]; in the test on C. tropicalis 895; in the test with C. tropicalis ATCC 20026) was above 128 µg/mL in each case.

Turning to `CC[C@H](C)[C@H](NC(=O)[C@H](CCCCN)NC(=O)[C@H](CCCCN)NC(=O)[C@@H](NC(=O)[C@]1(C)CCCC=CCCC[C@](C)(NC(C)=O)C(=O)N[C@@H](CC(C)C)C(=O)N[C@@H](Cc2ccccc2)C(=O)N[C@@H](CC(=O)O)C(=O)N1)[C@@H](C)CC)C(=O)N[C@@H](C)C(=O)N[C@@H](CCC(=O)O)C(=O)N[C@@H](CO)C(=O)N[C@@H](Cc1ccccc1)C(N)=O` [Sau-1] (Ac-[S5]LFD[S5]IKKIAESF-NH2; staple 1-5), the “Minimum inhibitory concentration (MIC)” value in the test with C. albicans 901 is 32 µg/mL (≈ 20 µM); with C. albicans 904 it was above 128 µg/mL; with C. albicans SC5314, above 64 µg/mL; with C. auris 918 it was above 128 µg/mL; in the test on C. auris 919, above 128 µg/mL; in the test on C. glabrata 896, above 128 µg/mL. The “Minimum inhibitory concentration (MIC)” value with C. glabrata ATCC 1182 was above 128 µg/mL; with C. krusei ATCC 2340, above 128 µg/mL; in test [1], 128 µg/mL (≈ 79.9 µM); with C. tropicalis 895 it was above 128 µg/mL; in the test with C. tropicalis ATCC 20026 it was above 128 µg/mL.

For the molecule `CC[C@H](C)[C@H](NC(=O)[C@H](CCCCN)NC(=O)[C@]1(C)CCCC=CCCC[C@](C)(NC(=O)[C@H](CC(C)C)NC(=O)CNC(C)=O)C(=O)N[C@@H](CC(=O)O)C(=O)N[C@@H]([C@@H](C)CC)C(=O)N[C@@H]([C@@H](C)CC)C(=O)N1)C(=O)N[C@@H](C)C(=O)N[C@@H](CCC(=O)O)C(=O)N[C@@H](CO)C(=O)N[C@@H](Cc1ccccc1)C(N)=O` [Sau-3] (Ac-GL[S5]DII[S5]KIAESF-NH2; staple 3-7), the “Minimum inhibitory concentration (MIC)” value in the test on C. albicans 901 was above 128 µg/mL; in the test with C. albicans 904, above 128 µg/mL; with C. albicans SC5314 it was above 64 µg/mL; in the test on C. auris 918 it was above 128 µg/mL; in the test with C. auris 919, above 128 µg/mL; with C. glabrata 896, above 128 µg/mL. The “Minimum inhibitory concentration (MIC)” value (with C. glabrata ATCC 1182; in the test on C. krusei ATCC 2340; in test [1]; with C. tropicalis 895; with C. tropicalis ATCC 20026) was above 128 µg/mL each time.

For the molecule `OC(Cn1cncn1)(Cn1cncn1)c1ccc(F)cc1F` [Fluconazole, reference compound], the MIC in the test with C. albicans 901 (Candida albicans, 901, 48 h, read-out: Minimum inhibitory concentration (MIC)) is above 64 µg/mL; in the test on C. albicans 904 (Candida albicans, 904, 48 h, read-out: Minimum inhibitory concentration (MIC)), above 64 µg/mL; with C. albicans SC5314 (Candida albicans, read-out: Minimum inhibitory concentration (MIC)), 0.5 µg/mL (≈ 1.63 µM); in the test with C. auris 918 (setting [2]) it was above 128 µg/mL; in the test on C. auris 919 (setting [2]) it was above 128 µg/mL; with C. glabrata 896 (Nakaseomyces glabratus, 48 h, read-out: Minimum inhibitory concentration (MIC)), above 128 µg/mL. The MIC with C. glabrata ATCC 1182 (Nakaseomyces glabratus, ATCC1182, 48 h, read-out: Minimum inhibitory concentration (MIC)) is 2 µg/mL (≈ 6.53 µM); in the test on C. krusei ATCC 2340 (Pichia kudriavzevii, ATCC2340, 48 h, read-out: Minimum inhibitory concentration (MIC)) it was 64 µg/mL (≈ 209 µM); in test [1] (Lodderomyces parapsilosis, ATCC22010, 48 h, read-out: Minimum inhibitory concentration (MIC)), 1 µg/mL (≈ 3.27 µM); in the test with C. tropicalis 895 (Candida tropicalis, 895, 48 h, read-out: Minimum inhibitory concentration (MIC)), above 128 µg/mL; with C. tropicalis ATCC 20026 (Candida tropicalis, ATCC20026, 48 h, read-out: Minimum inhibitory concentration (MIC)), 1 µg/mL (≈ 3.27 µM).

Turning to `CC[C@H](C)[C@H](NC(=O)[C@H](CC(=O)O)NC(=O)[C@H](Cc1ccccc1)NC(=O)[C@H](CC(C)C)NC(=O)CNC(C)=O)C(=O)N[C@H](C(=O)N[C@@H](CCCCN)C(=O)N[C@@]1(C)CCCC=CCCC[C@@](C)(C(=O)N[C@@H](Cc2ccccc2)C(N)=O)NC(=O)[C@H](CCC(=O)O)NC(=O)[C@H](C)NC(=O)[C@H]([C@@H](C)CC)NC1=O)[C@@H](C)CC` [Sau-8] (Ac-GLFDIIK[S5]IAE[S5]F-NH2; staple 8-12), the “Minimum inhibitory concentration (MIC)” value in the test with C. albicans 901 was above 128 µg/mL; with C. albicans 904 it was above 128 µg/mL; in the test with C. albicans SC5314 it was above 64 µg/mL; with C. auris 918 it was above 128 µg/mL; in the test with C. auris 919, above 128 µg/mL; in the test on C. glabrata 896, above 128 µg/mL. Besides, the “Minimum inhibitory concentration (MIC)” value (in the test with C. glabrata ATCC 1182; in the test on C. krusei ATCC 2340; in test [1]; in the test with C. tropicalis 895; in the test with C. tropicalis ATCC 20026) was above 128 µg/mL in each case.

As to `CC[C@H](C)[C@H](NC(=O)[C@H](CC(=O)O)NC(=O)[C@H](Cc1ccccc1)NC(=O)[C@H](CC(C)C)NC(=O)CNC(C)=O)C(=O)N[C@@]1(C)CCCC=CCCC[C@@](C)(C(=O)N[C@@H](CCC(=O)O)C(=O)N[C@@H](CO)C(=O)N[C@@H](Cc2ccccc2)C(N)=O)NC(=O)[C@H]([C@@H](C)CC)NC(=O)[C@H](CCCCN)NC(=O)[C@H](CCCCN)NC1=O` [Sau-6] (Ac-GLFDI[S5]KKI[S5]ESF-NH2; staple 6-10), the “Minimum inhibitory concentration (MIC)” value in the test with C. albicans 901 is above 128 µg/mL; in the test on C. albicans 904, above 128 µg/mL; in the test with C. albicans SC5314 it was above 64 µg/mL; in the test on C. auris 918, above 128 µg/mL; in the test on C. auris 919 it was above 128 µg/mL; in the test with C. glabrata 896, above 128 µg/mL. Moreover, the “Minimum inhibitory concentration (MIC)” value (with C. glabrata ATCC 1182; in the test on C. krusei ATCC 2340; in test [1]; in the test on C. tropicalis 895; in the test on C. tropicalis ATCC 20026) was above 128 µg/mL each time.
